Laboratory results reported in PMC10221314 (Pharmaceuticals, 2023).

Columns and labels:
[1] = test system: FXR downstream genes; assay: mRNA expression of FXR downstream genes in HepG2 cells (qRT-PCR); format: cell-based; conditions: 10 μM and 1 μM, 24 h
Method: (§1) Cells and liver tissue samples were subjected to RNA extraction and purification, followed by reverse transcription of equal amounts of total RNA into […] using a Transcriptor First Strand cDNA Synthesis Kit (Roche). The relative expression levels of the target gene were determined using TaqMan probe/primers with an ABI Q3 quantitative real-time PCR system, while GAPDH/Gapdh was utilized as an internal control for mRNA expression. The fold change in the expression of the target mRNA was calculated using Equation 2^−ΔΔCt.
(A) Relative mRNA level of SHP; (B) Relative mRNA level of BSEP; (C) Relative mRNA level of CYP7A1; (D) Relative mRNA level of SREBP1c; (E) Relative mRNA level of PEPCK; (F) Expression level of G6Pase. HepG2 cells were seeded in a 6-well plate and treated with DMSO and varying concentrations of compound 10b for 24 h with or without 50 μM of 1. The mRNA levels of SHP, BSEP, CYP7A1, SREBP1c, PEPCK, and G6Pase were quantified and normalized to β-actin expression.

[2] = test system: HFD mice; assay: CDAHFD diet-induced NASH mouse model; format: in vivo
Method: as §1
A total of 24 C57BL/6N mice were randomly assigned to three groups, including Ctrl., Model-N.S., and Model-10b-100 mg·kg^−1, with eight animals per group. The randomization process was performed using Research Randomizer (RRID: SCR_008563). CDHFD (D09100310) diet was obtained from Research Diets Inc. Sixteen mice were fed the CDHFD diet for 12 weeks to induce NASH, with eight mice receiving a normal diet as a control. At the beginning of the 13th week, the mice in the model group were randomly assigned into two groups and given daily gavages of either normal saline (Model-N.S. group) or 100 mg·kg^−1 of compound 10b suspended in 0.5% sodium carboxymethylcellulose solution (Model-10b groups) for four weeks. Daily bodyweights were recorded, and blood samples were collected from the abdominal aorta following an overnight fast. Afterward, the mice were euthanized using isoflurane. Liver tissue samples were obtained, and some were treated with 4% paraformaldehyde to prepare them for future histological analysis, while others were kept at −80 °C for later examination. Maximum liver lobule was collected for each mouse.
Kits purchased from Zhongsheng Beikong Biotechnology (Beijing, China) were used to measure the serum concentrations of alanine aminotransferase, aspartate aminotransferase, alkaline phosphatase, γ-glutamyl transpeptidase, total cholesterol, total triglyceride, low-density lipoprotein (LDL), high-density lipoprotein (HDL) cholesterol, lactate dehydrogenase, total bile acid, and total bilirubin. The samples were analyzed on a Hitachi 7100 Analyzer.
The liver tissue was fixed with formalin, embedded in paraffin, and sectioned. The sections were stained with H&E, Oil Red, Masson’s, and Sirius Red. Liver necrosis, inflammation, bile duct proliferation, hepatic steatosis, and lobule inflammation were evaluated on a scale of 1–5 in a blinded manner using a Leica DM1000 microscope. Five randomly selected manifold area fields of vision were used to quantify the red area in each field of vision (eight in each group), which was counted using ImageJ software. The liver hydroxyproline concentration was determined using kits from Nanjing, China, in accordance with the manufacturer’s instructions.
The mouse liver samples were cut into small pieces of 50 mg size and homogenized in TG, TC, and FC extracts using a high-speed tissue homogenizer. The TG, TC, and FC were then extracted from the tissue, and their contents in the sample were calculated using the protein content for calibration. The determination process utilized the test kit for TC, TG, and FC of high-fat samples from Applygen Technologies Inc. (E1025, E1026, E1027).

[3] = molecular target: T1, LXRα (Homo sapiens, UniProt Q13133); assay: NR selectivity one-hybrid assay in HEK-293T cells (LXRα); format: cell-based; conditions: activated by GW3965
T1 construct: a fusion plasmid of Gal4 DBD-NR LBD (comprising RXRα, RXRβ, RXRγ, PPARα, PPARβ, PPARγ, LXRα, LXRβ, GPBAR, and PXR); expressed in transfected cells; host or cells: HEK-293T
T1 sequence (Q13133 209-447 limits assumed): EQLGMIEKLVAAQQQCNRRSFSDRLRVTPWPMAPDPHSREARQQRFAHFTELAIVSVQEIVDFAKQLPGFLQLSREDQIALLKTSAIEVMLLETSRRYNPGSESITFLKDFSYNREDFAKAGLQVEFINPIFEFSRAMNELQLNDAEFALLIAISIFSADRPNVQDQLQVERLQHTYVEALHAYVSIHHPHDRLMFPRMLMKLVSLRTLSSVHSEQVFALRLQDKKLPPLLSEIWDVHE
Method: To assess the compound’s specificity, the mammalian one-hybrid assay was conducted. In this assay, HEK-293T cells were co-transfected with a fusion plasmid of Gal4 DBD-NR LBD (comprising RXRα, RXRβ, RXRγ, PPARα, PPARβ, PPARγ, LXRα, LXRβ, GPBAR, and PXR) and the UAS-TK-Luc reporter, followed by treatment with various concentrations of the compound. The positive control consisted of the corresponding nuclear receptor agonist, and the concentration used in the experiment was set to the EC50 of the agonist.
Figure 3 Compound 10b selectively antagonized FXR. The impact of compound 10b on various NRs was evaluated using a […] one-hybrid assay in HEK-293T cells. The cells were transiently co-transfected with a fusion plasmid of Gal4 DBD-NR-LBD, which included PPARα, PPARβ, PPARγ, RXRα, RXRβ, RXRγ, LXRα, LXRβ, GPBAR, PXR, and FXR, in combination with the UAS-TK-Luc reporter. […] The values are expressed as the means ± SE of three independent experiments. *: p < 0.05 vs. RA (relative agonist).

[4] = in the presence and absence of compound 1 (50 μM)
[5] = HFD (CDAHFD) mice, 100 mg·kg-1 gavage daily, four weeks

`CC1(C)CCC2(C(=O)O)CCC3(C)C(C(OC(=O)CCC(NC(=O)OC(C)(C)C)C(=O)OC(C)(C)C)CC4C5(C)CCC(O)C(C)(C)C5CCC43C)C2C1` [Compound 10b, 3β-hydroxy-12β-(4′-((tert-butoxycarbonyl)amide)-5′-(tert-butoxy)-L-glutamte)oxy-13H-olean-28-oic acid] was tested, and the “expression of G6Pase (mRNA)” value [1] was “inhibited the expression”, the “expression of PEPCK (mRNA)” value [1] was “inhibited the expression” and the “expression of BSEP (mRNA)” value [1, 4] was “inhibit”. The “expression of CYP7A1 (mRNA)” value [1, 4] was “increasing the expression”, the “expression of SHP (mRNA)” value [1, 4] was “inhibit” and the “expression of SREBP1c (mRNA)” value [1, 4] was “inhibit”. The “hepatic lobular inflammation (NAS score)” value ([2]; CDAHFD mice, 100 mg·kg-1) was “improved”, the “intrahepatic steatosis (NAS score)” value ([2]; CDAHFD mice, 100 mg·kg-1) was “improved” and the “liver FC (free cholesterol)” value ([2]; CDAHFD mice, 100 mg·kg-1) was “no significant effect”. The “liver TC” value ([2]; CDAHFD mice, 100 mg·kg-1) was “no significant effect”, the “total triglyceride content in the liver” value ([2]; CDAHFD mice, 100 mg·kg-1) was “reduced” and the “Serum ALP” value [2, 5] was 189.71±29.41 U·L-1. The “Serum ALT” value [2, 5] was 325.43±88.40 U·L-1, the “Serum AST” value [2, 5] was 401.86±91.05 U·L-1 and the “Serum CHO” value [2, 5] was 2.36 ± 0.44 mmol/L. The “Serum Glu” value [2, 5] was 5.71 ± 1.25 mmol/L, the “Serum HDL” value [2, 5] was 1.22 ± 0.33 mmol/L and the “Serum LDH” value [2, 5] was 1326.57±264.54 U·L-1. The “Serum LDL” value [2, 5] was 0.23 ± 0.04 mmol/L, the “Serum TBA” value [2, 5] was 23.46 ± 12.81 µmol/L and the “Serum TBiL” value [2, 5] was 3.81 ± 0.92 µmol/L. For the same molecule, the “mRNA expression of liver fibrosis-related genes in liver” value ([2]; NASH mouse model, 100 mg·kg-1) was “inhibit” and the “antagonistic effects against LXRα” value [3] was 10–20%.
